The values below come from patent US8987273B2, “Substituted imidazo[1,2-B]pyridazines” (Bayer Intellectual Property GmbH, priority 2010, dated 2015).

Where a name gives a salt, the structure may show the parent alone.

Assay [1] addresses His-tagged human recombinant kinase full-length Akt1 (Homo sapiens (Human), UniProt P31749). The assay can be described thus: Akt1 kinase assay (TR-FRET). The format is biochemical. Conditions: 10 μM ATP; median. From the text: Akt1 inhibitory activity of compounds of the present invention was quantified employing the Akt1 TR-FRET assay as described in the following paragraphs. His-tagged human recombinant kinase full-length Akt1 expressed in insect cells was purchased form Invitrogen (part number PV 3599). As substrate for the kinase reaction the biotinylated peptide biotin-Ahx-[…] (C-terminus in amide form) was used which can be purchased e.g. from the company Biosynthan GmbH (Berlin-Buch, Germany).
(§1) For the assay 50 nl of a 100 fold concentrated solution of the test compound in DMSO was pipetted into a black low volume 384 well microtiter plate (Greiner Bio-One, Frickenhausen, Germany), 2 μl of a solution of Akt1 in assay buffer [50 mM TRIS/HCl pH 7.5, 5 mM MgCl2, 1 mM dithiothreitol, 0.02% (v/v) Triton X-100 (Sigma)] were added and the mixture was incubated for 15 min at 22° C. to allow pre-binding of the test compounds to the enzyme before the start of the kinase reaction. Then the kinase reaction was started by the addition of 3 μl of a solution of adenosine-tri-phosphate (ATP, 16.7 μM=>final conc. in the 5 μl assay volume is 10 μM) and substrate (1.67 μM=>final conc. in the 5 μl assay volume is 1 μM) in assay buffer and the resulting mixture was incubated for a reaction time of 60 min at 22° C. The concentration of Akt1 in the assay was adjusted depending of the activity of the enzyme lot and was chosen appropriate to have the assay in the linear range, typical enzyme concentrations were in the range of about 0.05 ng/μl (final conc. in the 5 μl assay volume).
The reaction was stopped by the addition of 5 μl of a solution of HTRF detection reagents (200 nM streptavidine-XL665 [Cisbio] and 1.5 nM anti-phosho-Serine antibody [Millipore, cat. #35-001] and 0.75 nM LANCE Eu-W 1024 labeled anti-mouse IgG antibody [Perkin Elmer]) in an aqueous EDTA-solution (100 mM EDTA, 0.1% (w/v) bovine serum albumin in 50 mM HEPES/NaOH pH 7.5).
(§2) The resulting mixture was incubated 1 h at 22° C. to allow the binding of the biotinylated phosphorylated peptide to the streptavidine-XL665 and the antibodies. Subsequently the amount of phosphorylated substrate was evaluated by measurement of the resonance energy transfer from the anti-mouse-IgG-Eu-Chelate to the streptavidine-XL665. Therefore, the fluorescence emissions at 620 nm and 665 nm after excitation at 350 nm was measured in a HTRF reader, e.g. a Rubystar (BMG Labtechnologies, Offenburg, Germany) or a Viewlux (Perkin-Elmer). The ratio of the emissions at 665 nm and at […] was taken as the measure for the amount of phosphorylated substrate. The data were normalised (enzyme reaction without inhibitor=0% inhibition, all other assay components but no enzyme=100% inhibition).

Another assay has as its system KPL-4 cells. The assay is described as follows: Tumor cell proliferation assay (CellTiter-Glo). In kind it is cell-based. Conditions: KPL4; 72 h drug exposure. The protocol:
Compounds were tested in a cell-based assay that measures the capacity of the compounds to inhibit tumour cell proliferation following a 72 h drug exposure. Cell viability is determined using CellTiter-Glow® (CTG, Promega, cat# G757112/3). The CellTiter-Glo® Luminescent Cell Viability Assay is a homogeneous method to determine the number of viable cells in culture. Detection is based on using the luciferase reaction to measure the amount of ATP from viable cells. The amount of ATP in cells correlates with cell viability. Within minutes after a loss of membrane integrity, cells lose the ability to synthesize ATP, and endogenous ATPases destroy any remaining ATP; thus the levels of ATP fall precipitously.
Cells were plated at 3000-5000 cells/well (depending on the cell lines) in 90 μL growth medium on MTPs (Corning; #3603, black plate, clear flat bottom). For each cell line assayed, cells were plated onto a separate plate for determination of […] at t=0 hour and t=72 hour time points. Following overnight incubation at 37° C., chemiluminescence values for the t=0 samples were determined after adding 10 μl medium and 100 μl CTG solution according to manufacture protocol. Plates for the t=72 hour time points were treated with compounds diluted into growth medium at ten times final concentration added in 10 μL to the cell culture plate. Cells were then incubated for 72 hours at 37° C. Chemiluminescence values for the t=72 hour samples were determined. For data analysis, briefly, data from 24 h plate where used to reflect 100% inhibition of growth (“Ci”) and DMSO control for uninhibited growth (“C0”) and analyzed using MTS software package for IC50 and Hill coefficient. Experiments were controlled using a reference compound as standard.
In general terms: Cellular ATP, detected with luciferase, serves as a proxy for viable cell number.

The subject of assay [2] is phospho-AKT at S473 in KPL4 breast tumour cell line. The assay can be described thus: Cellular p-AKT1/2/3-S473 assay. Conditions: KPL4 cells, 2 hours treatment; median; read-out: pAKT-S743 median IC50. In kind it is cell-based. The protocol:
The molecular mechanism of action was investigated in a set of experiments to assess the inhibition of the PI3K-AKT-mTOR pathway in responsive cell lines such as KPL4 breast tumour cell line (PIK3CAH1047R, HER2O/E and hormone independent). The phospho-substrates of PI3K-AKT-mTOR axis were used as the read-outs to reflect pathway inhibition. Cells were seeded at 60-80% confluency per well in 96-well cell culture plates. After overnight incubation at 37° C. 5% CO2, cells were treated with compounds and vehicle at 37° C. for 2 hours. […] All measurements where at least done in duplicates and confirmed by independent repetition.
Alternatively pAKT-S473 was measured using the “Akt Duplex” of the MULTI-SPOT® Assay System (Fa. Meso Scale Discovery, Cat# N41100B-1) following manufacturers instructions. Each assay used 20 μg of protein extract and measured total AKT and p-AKT content simultaneously in one well. All measurements where at least done in duplicates and confirmed by independent repetition. Values for P-AKT are expressed as percentage of P-AKT level compared to total-AKT content of the extracts.

The target in assay [3] is His-tagged human recombinant kinase full-length Akt2 (Homo sapiens (Human), UniProt P31751). The assay is described as follows: Akt2 kinase assay (TR-FRET). The format is biochemical. Conditions: 10 μM ATP; median.
Text: Akt2 inhibitory activity of compounds of the present invention was quantified employing the Akt2 TR-FRET assay as described in the following paragraphs.
His-tagged human recombinant kinase full-length Akt2 expressed in insect cells and activated by PDK1 was purchased form Invitrogen (part number PV 3975). As substrate for the kinase reaction the biotinylated peptide biotin-Ahx-[…] (C-terminus in amide form) was used which can be purchased e.g. from the company Biosynthan GmbH (Berlin-Buch, Germany).
as §1, with “Akt2” for “Akt1”, “0.2” for “0.05”
The reaction was stopped by the addition of 5 μl of a solution of HTRF detection reagents (200 nM streptavidine-XL665 [Cisbio] and 1.5 nM anti-phosho-Serine antibody [Millipore, cat. #35-001] and 0.75 nM LANCE Eu-W 1024 labeled anti-mouse IgG antibody [Perkin Elmer]) in an aqueous EDTA-solution (100 mM EDTA, 0.1%/w/v\ bovine serum albumin in 50 mM HEPES/NaOH pH 7.5).
as §2, with “TR-FRET” for “HTRF”
In general terms: TR-FRET usually uses a lanthanide donor and a delayed reading to cut background.

The term IC50 denotes the concentration needed to halve the response being measured.

Chain of His-tagged human recombinant kinase full-length Akt1 (P31749 whole entry): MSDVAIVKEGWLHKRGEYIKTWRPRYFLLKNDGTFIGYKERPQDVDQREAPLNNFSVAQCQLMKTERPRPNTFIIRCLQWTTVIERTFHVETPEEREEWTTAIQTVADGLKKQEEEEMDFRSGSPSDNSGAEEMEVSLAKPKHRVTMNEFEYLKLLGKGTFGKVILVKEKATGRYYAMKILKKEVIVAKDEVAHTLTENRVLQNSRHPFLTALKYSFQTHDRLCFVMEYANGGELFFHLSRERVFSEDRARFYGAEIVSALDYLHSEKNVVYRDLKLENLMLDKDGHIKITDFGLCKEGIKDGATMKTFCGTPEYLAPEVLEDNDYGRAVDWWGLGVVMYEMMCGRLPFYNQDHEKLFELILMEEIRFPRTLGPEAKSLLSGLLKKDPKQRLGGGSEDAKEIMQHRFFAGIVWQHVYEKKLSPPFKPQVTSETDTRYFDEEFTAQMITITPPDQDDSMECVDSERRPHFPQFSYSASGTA
Chain of His-tagged human recombinant kinase full-length Akt2 (P31751 whole entry): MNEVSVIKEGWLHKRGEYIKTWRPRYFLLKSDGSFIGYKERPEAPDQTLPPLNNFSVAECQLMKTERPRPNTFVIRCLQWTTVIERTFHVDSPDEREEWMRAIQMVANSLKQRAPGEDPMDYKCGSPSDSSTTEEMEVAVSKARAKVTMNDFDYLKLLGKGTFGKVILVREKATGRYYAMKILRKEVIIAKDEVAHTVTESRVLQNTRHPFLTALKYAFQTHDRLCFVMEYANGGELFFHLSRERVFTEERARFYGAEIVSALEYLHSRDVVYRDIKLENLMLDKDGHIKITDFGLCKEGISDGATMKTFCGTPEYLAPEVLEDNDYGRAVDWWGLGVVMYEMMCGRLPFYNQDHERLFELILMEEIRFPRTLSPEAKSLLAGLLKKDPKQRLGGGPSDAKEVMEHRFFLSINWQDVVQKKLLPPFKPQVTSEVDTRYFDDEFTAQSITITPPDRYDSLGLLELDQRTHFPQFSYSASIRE

Regarding `NC1(c2ccc(-c3nn4c(-c5ccc(F)cc5)c(Cl)nc4cc3-c3ccccc3)cc2)CCC1` [Example 7-0, 1-{4-[2-Chloro-3-(4-fluorophenyl)-7-phenyl-imidazo[1,2-b]pyridazin-6-yl]-phenyl}-cyclobutylamine], the IC50 in assay [1] was 0.099 µM; in the assay with KPL-4 cells, 3.03 µM; in assay [2], 0.61 µM; in assay [3] it was 0.106 µM.

As for `NC1(c2ccc(-c3nn4c(-c5ccc(O)nc5)cnc4cc3-c3ccccc3)cc2)CCC1` [Example 4-13, 5-{6-[4-(1-Amino-cyclobutyl)-phenyl]-7-phenyl-imidazo[1,2-b]pyridazin-3-yl}-pyridin-2-ol], the IC50 came out at 0.146 µM in assay [1], 3.36 µM in the assay with KPL-4 cells, 0.16 µM in assay [2] and 0.431 µM in assay [3].

In the case of `NC1(c2ccc(-c3nn4c(Br)cnc4cc3-c3ccccc3)cc2)CCC1` [Example 4-8, 1-[4-(3-Bromo-7-phenyl-imidazo[1,2-b]pyridazin-6-yl)-phenyl]-cyclobutylamine hydrochloride], the IC50 in assay [1] worked out at 0.074 µM; in the assay on KPL-4 cells, 2.38 µM; in assay [2], 0.11 µM; in assay [3], 0.264 µM.

Regarding `COC(=O)c1ccc(-c2cnc3cc(-c4ccccc4)c(-c4ccc(C5(N)CCC5)cc4)nn23)cn1` [Example 4-14, 5-{6-[4-(1-Amino-cyclobutyl)-phenyl]-7-phenyl-imidazo[1,2-b]pyridazin-3-yl}-pyridine-2-carboxylic acid methyl ester], the IC50 was 0.019 µM in assay [1], 6.02 µM with KPL-4 cells, 0.92 µM in assay [2] and 0.115 µM in assay [3].

As to `NC1(c2ccc(-c3nn4c(-c5ccc(F)cc5)c(Br)nc4cc3-c3ccccc3)cc2)CCC1` [Example 6-0, 1-{4-[2-Bromo-3-(4-fluorophenyl)-7-phenyl-imidazo[1,2-b]pyridazin-6-yl]-phenyl}-cyclobutylamine], the IC50 in assay [1] came out at 0.068 µM; in the assay on KPL-4 cells, 1.89 µM; in assay [2], 0.41 µM; in assay [3] it was 0.041 µM.

On to `Cc1nc2cc(-c3ccccc3)c(-c3ccc(C4(N)CCC4)cc3)nn2c1-c1ccc(C(N)=O)cc1` [Example 5-4, 4-{6-[4-(1-Amino-cyclobutyl)-phenyl]-2-methyl-7-phenyl-imidazol[1,2-b]pyridazin-3-yl}-benzamide], for which the IC50 in assay [1] stood at 12.1 µM; in the assay with KPL-4 cells it was 2.38 µM; in assay [2], 10 µM; in assay [3], 4.82 µM.

As for `CCOC(=O)c1cncc(-c2cnc3cc(-c4ccccc4)c(-c4ccc(C5(N)CCC5)cc4)nn23)c1` [Example 4-17, 5-{6-[4-(1-Amino-cyclobutyl)-phenyl]-7-phenyl-imidazo[1,2-b]pyridazin-3-yl}-nicotinic acid ethyl ester], the IC50 in assay [1] amounted to 0.007 µM; with KPL-4 cells, 6.2 µM; in assay [2], 0.06 µM; in assay [3], 0.11 µM.

For `NC1(c2ccc(-c3nn4c(-c5ccc(S(N)(=O)=O)cc5)cnc4cc3-c3ccccc3)cc2)CCC1` [Example 4-7, 4-{6-[4-(1-Amino-cyclobutyl)-phenyl]-7-phenyl-imidazo[1,2-b]pyridazin-3-yl}-benzenesulfonamide hydrocloride], the IC50 in assay [1] stood at 0.047 µM; with KPL-4 cells, 1.75 µM; in assay [2], 0.16 µM; in assay [3], 0.151 µM.

For the molecule `NC1(c2ccc(-c3nn4c(-c5cn[nH]c5)cnc4cc3-c3ccccc3)cc2)CCC1` [Example 4-12, 1-{4-[7-Phenyl-3-(1H-pyrazol-4-yl)-imidazo[1,2-b]pyridazin-6-yl]-phenyl}-cyclobutylamine], the IC50 is 0.009 µM in assay [1], 0.55 µM with KPL-4 cells, 0.01 µM in assay [2] and 0.067 µM in assay [3].

`NC(=O)c1cccc(-c2cnc3cc(-c4ccccc4)c(-c4ccc(C5(N)CCC5)cc4)nn23)c1` [Example 4-11, 3-{6-[4-(1-Amino-cyclobutyl)-phenyl]-7-phenyl-imidazo[1,2-b]pyridazin-3-yl}-benzamide hydrochloride]: the IC50 was found to be 0.013 µM in assay [1], 1.41 µM in the assay on KPL-4 cells, 0.02 µM in assay [2] and 0.068 µM in assay [3].
